Source: article PMC7827406, “Structure–Activity Relationship (SAR) Study of Spautin-1 to Entail the Discovery of Novel NEK4 Inhibitors” (International Journal of Molecular Sciences, 2021)
Where two headings read alike, the source gives them in different places.

What was measured:
Assay in all cases: biochemical
Set-up in all cases: Eurofins KinaseProfiler full panel at Km ATP, residual kinase activity (%) relative to DMSO
JAK2(h) = JAK2(h) (Homo sapiens, UniProt O60674)
Procedure, shortened: (§1)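 Compounds screened at 10 µM in radiometric kinase activity assays at Km ATP, reported as remaining kinase activity (%). A KINOMEscan competition-binding screen at 10 µM measured DNA-tagged kinase retained on immobilized active-site ligand by qPCR.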

Aurora-A(h) = molecular target: T1, Aurora-A(h) (Homo sapiens, UniProt O14965)
T1 construct: gene AURKA
T1 sequence (O14965 1-403): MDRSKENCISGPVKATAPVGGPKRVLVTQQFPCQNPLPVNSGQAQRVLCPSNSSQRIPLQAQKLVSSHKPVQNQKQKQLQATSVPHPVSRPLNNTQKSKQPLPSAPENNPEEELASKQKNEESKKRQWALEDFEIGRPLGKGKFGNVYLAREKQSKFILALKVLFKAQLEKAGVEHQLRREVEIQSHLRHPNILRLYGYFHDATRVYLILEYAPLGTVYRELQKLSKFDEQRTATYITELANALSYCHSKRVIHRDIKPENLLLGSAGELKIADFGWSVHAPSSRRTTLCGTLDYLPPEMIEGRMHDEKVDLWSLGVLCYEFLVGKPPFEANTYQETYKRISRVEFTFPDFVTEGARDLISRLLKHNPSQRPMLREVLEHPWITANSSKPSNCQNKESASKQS
Procedure, shortened: as §1

PKG1β(h) = molecular target: T2, PKG1β(h) (Homo sapiens, UniProt Q13976)
T2 construct: gene PRKG1; isoform 1beta
T2 sequence (Q13976 1-671): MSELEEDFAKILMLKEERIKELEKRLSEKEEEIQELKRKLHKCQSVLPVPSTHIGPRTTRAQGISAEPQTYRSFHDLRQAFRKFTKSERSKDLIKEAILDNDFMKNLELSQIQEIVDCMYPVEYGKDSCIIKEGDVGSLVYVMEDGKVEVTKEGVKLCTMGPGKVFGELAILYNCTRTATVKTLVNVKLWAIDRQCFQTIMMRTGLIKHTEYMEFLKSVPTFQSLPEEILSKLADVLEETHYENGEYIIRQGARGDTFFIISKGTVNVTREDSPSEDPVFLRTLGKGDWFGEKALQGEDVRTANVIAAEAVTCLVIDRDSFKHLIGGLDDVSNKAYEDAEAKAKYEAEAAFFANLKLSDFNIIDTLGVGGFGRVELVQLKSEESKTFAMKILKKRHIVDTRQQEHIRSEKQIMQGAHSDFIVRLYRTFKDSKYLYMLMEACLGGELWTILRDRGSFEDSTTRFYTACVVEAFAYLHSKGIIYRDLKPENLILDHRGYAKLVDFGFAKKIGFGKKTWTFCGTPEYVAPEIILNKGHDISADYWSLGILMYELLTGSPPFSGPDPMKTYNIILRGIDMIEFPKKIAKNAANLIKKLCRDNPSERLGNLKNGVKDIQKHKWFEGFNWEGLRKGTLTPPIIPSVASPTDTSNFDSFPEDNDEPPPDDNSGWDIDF
Procedure, shortened: as §1

SAPK3(h) = molecular target: T3, SAPK3(h) (Homo sapiens, UniProt P53778)
T3 construct: gene MAPK12
T3 sequence (P53778 1-367): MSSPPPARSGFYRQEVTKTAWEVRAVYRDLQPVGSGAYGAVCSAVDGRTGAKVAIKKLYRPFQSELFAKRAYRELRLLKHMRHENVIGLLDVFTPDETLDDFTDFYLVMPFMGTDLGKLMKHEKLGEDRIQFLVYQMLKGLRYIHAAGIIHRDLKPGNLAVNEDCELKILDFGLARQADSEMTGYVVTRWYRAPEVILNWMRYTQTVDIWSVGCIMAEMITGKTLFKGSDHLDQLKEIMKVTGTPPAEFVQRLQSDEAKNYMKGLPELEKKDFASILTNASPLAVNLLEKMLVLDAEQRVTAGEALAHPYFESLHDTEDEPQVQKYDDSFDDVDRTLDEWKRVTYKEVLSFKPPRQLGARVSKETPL
Procedure, shortened: as §1

CK1γ1(h) = molecular target: T4, CK1γ1(h) (Homo sapiens, UniProt Q9HCP0)
T4 construct: gene CSNK1G1
T4 sequence (Q9HCP0 whole entry): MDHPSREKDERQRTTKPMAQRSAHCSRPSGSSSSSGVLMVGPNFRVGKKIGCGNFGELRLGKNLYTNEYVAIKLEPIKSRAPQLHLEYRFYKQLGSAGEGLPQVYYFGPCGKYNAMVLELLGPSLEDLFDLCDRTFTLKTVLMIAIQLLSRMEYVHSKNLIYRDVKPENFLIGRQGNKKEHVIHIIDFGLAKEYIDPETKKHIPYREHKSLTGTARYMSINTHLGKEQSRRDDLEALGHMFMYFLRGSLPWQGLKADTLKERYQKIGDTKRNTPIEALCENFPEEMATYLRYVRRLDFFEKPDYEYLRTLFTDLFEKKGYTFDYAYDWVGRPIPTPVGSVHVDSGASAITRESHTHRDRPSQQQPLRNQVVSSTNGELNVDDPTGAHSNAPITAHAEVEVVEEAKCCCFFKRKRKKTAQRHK
Procedure, shortened: as §1

ROCK-I(h) = molecular target: T5, ROCK-I(h) (Homo sapiens, UniProt Q13464)
T5 construct: gene ROCK1
T5 sequence (Q13464 whole entry): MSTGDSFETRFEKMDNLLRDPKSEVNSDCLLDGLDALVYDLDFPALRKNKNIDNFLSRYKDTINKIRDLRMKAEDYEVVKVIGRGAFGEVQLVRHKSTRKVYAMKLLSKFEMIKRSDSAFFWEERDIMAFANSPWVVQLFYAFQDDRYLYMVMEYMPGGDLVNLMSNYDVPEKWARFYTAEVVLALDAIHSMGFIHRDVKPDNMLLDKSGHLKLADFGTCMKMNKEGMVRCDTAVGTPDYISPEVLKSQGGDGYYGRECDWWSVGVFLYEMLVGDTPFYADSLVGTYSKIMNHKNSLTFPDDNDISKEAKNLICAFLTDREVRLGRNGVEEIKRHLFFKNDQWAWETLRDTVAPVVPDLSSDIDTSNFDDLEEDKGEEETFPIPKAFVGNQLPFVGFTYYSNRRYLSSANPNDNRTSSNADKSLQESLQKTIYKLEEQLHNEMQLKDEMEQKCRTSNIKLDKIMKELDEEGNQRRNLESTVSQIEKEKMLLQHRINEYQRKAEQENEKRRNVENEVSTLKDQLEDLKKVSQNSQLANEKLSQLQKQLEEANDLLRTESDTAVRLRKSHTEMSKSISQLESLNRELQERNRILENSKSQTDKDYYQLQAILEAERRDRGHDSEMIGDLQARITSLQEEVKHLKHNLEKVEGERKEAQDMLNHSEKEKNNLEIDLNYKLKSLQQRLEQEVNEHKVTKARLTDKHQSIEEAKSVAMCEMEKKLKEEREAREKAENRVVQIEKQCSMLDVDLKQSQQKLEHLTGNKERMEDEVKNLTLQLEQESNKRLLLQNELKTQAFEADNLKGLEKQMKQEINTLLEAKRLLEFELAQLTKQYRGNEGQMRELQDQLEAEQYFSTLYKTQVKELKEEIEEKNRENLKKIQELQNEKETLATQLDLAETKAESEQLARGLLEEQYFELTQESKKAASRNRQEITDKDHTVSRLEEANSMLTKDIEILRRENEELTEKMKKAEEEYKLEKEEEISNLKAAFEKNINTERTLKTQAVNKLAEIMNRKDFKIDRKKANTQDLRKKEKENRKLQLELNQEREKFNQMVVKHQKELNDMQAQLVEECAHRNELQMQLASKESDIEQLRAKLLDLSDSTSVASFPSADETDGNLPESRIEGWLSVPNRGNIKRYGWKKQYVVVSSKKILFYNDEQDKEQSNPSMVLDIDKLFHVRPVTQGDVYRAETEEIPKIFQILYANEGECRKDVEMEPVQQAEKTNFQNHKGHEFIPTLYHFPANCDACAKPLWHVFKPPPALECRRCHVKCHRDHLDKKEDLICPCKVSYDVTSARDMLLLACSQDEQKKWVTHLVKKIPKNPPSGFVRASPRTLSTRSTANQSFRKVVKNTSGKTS
Procedure, shortened: as §1

TRB2(h) = molecular target: T6, TRB2(h) (Homo sapiens, UniProt Q92519)
T6 construct: gene TRIB2
T6 sequence (Q92519 1-343): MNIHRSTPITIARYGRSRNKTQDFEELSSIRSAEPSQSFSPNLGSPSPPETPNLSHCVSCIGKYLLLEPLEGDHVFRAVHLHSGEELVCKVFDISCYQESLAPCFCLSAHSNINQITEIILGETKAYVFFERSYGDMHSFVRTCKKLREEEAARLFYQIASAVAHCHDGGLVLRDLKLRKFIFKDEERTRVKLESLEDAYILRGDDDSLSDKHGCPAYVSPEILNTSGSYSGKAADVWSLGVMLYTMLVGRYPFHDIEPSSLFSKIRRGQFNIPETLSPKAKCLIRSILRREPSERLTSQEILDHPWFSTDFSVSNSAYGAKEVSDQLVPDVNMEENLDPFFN
Procedure, shortened: as §1

[1] = read-out: Residual activity (%) 5ay
[2] = read-out: Residual activity (%) Spautin-1 5aa
[3] = read-out: Residual activity (%) 5at
[4] = read-out: Residual activity (%) 5as

Chain of JAK2(h) (O60674 whole entry): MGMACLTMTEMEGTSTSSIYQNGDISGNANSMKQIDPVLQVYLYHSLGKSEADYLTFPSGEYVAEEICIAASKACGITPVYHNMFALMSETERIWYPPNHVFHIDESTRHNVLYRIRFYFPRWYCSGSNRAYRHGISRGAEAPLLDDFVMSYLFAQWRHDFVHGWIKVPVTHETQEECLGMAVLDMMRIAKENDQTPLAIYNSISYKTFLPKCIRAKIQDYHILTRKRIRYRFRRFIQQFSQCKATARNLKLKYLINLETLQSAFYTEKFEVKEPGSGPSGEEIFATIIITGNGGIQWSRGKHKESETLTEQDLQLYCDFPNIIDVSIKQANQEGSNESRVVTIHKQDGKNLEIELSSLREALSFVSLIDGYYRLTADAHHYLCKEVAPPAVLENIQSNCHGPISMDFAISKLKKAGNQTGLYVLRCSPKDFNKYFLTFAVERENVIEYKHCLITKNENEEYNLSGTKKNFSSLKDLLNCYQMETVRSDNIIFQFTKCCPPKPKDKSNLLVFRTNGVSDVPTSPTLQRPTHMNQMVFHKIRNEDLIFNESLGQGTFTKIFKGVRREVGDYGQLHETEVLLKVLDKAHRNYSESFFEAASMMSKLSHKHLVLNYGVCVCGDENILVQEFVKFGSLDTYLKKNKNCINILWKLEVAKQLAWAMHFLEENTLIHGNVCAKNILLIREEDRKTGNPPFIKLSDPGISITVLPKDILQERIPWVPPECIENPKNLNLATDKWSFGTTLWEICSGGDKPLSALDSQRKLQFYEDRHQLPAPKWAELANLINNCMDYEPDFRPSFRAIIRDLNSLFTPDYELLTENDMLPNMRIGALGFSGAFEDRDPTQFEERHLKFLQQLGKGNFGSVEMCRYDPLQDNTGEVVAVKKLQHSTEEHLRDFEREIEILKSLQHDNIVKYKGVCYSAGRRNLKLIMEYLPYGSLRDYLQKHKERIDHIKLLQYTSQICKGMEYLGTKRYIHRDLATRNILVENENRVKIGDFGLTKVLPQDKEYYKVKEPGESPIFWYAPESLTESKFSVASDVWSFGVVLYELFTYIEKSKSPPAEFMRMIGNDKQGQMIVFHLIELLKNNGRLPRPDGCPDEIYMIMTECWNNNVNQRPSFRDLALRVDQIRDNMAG

SMILES: COc1ccc2ncnc(Nc3cccc(F)c3)c2c1 [5ay, N-(3-Fluorophenyl)-6-Methoxy-4-Quinazolinamine]
- remaining activity at 10 µM (JAK2(h); [1]): 108%
- remaining activity at 10 µM (Aurora-A(h); [1]): 79%
- remaining activity at 10 µM (PKG1β(h); [1]): 94%
- remaining activity at 10 µM (SAPK3(h); [1]): 101%
- remaining activity at 10 µM (CK1γ1(h); [1]): 94%
- remaining activity at 10 µM (ROCK-I(h); [1]): 96%
- remaining activity at 10 µM (TRB2(h); [1]): 31%

SMILES: Fc1ccc(CNc2ncnc3ccc(F)cc23)cc1 [5aa, 6-Fluoro-N-(4-fluorobenzyl)-4-Quinazolinamine]
- remaining activity at 10 µM (JAK2(h); [2]): 91%
- remaining activity at 10 µM (Aurora-A(h); [2]): 81%
- remaining activity at 10 µM (PKG1β(h); [2]): 91%
- remaining activity at 10 µM (SAPK3(h); [2]): 106%
- remaining activity at 10 µM (CK1γ1(h); [2]): 99%
- remaining activity at 10 µM (ROCK-I(h); [2]): 91%
- remaining activity at 10 µM (TRB2(h); [2]): 69%

SMILES: Fc1ccc2ncnc(NCCc3ccc(Cl)cc3)c2c1 [5at, N-[2-(4-Chlorophenyl)Ethyl]-6-Fluoro-4-Quinazolinamine]
- remaining activity at 10 µM (JAK2(h); [3]): 86%
- remaining activity at 10 µM (Aurora-A(h); [3]): 70%
- remaining activity at 10 µM (PKG1β(h); [3]): 76%
- remaining activity at 10 µM (SAPK3(h); [3]): 87%
- remaining activity at 10 µM (CK1γ1(h); [3]): 80%
- remaining activity at 10 µM (ROCK-I(h); [3]): 93%
- remaining activity at 10 µM (TRB2(h); [3]): 60%

SMILES: Fc1ccc(CCNc2ncnc3ccc(F)cc23)cc1 [5as, 6-Fluoro-N-[2-(4-Fluorophenyl)Ethyl]-4-Quinazolinamine]
- remaining activity at 10 µM (JAK2(h); [4]): 93%
- remaining activity at 10 µM (Aurora-A(h); [4]): 87%
- remaining activity at 10 µM (PKG1β(h); [4]): 84%
- remaining activity at 10 µM (SAPK3(h); [4]): 114%
- remaining activity at 10 µM (CK1γ1(h); [4]): 80%
- remaining activity at 10 µM (ROCK-I(h); [4]): 98%
- remaining activity at 10 µM (TRB2(h); [4]): 65%
